Results as given in patent US20230167073A1 (Teijin Pharma Limited, priority 2020, published 2023).

The compounds below were run against T1, Human TRPC6 (Homo sapiens, UniProt Q9Y210) (assay: Evaluation of TRPC6 channel inhibitory activity (1), FLIPR Calcium 5 Assay Kit, OAG stimulation (Compound Nos. 1-1293)). Details: Human TRPC6 stably-expressing cells, OAG 30 μM, FLIPR Calcium 5 Assay Kit; read-out: Inhibitory activity (pIC50 class) (converted).
T1 construct: expressed in transfected cells
T1 sequence (Q9Y210 1-931): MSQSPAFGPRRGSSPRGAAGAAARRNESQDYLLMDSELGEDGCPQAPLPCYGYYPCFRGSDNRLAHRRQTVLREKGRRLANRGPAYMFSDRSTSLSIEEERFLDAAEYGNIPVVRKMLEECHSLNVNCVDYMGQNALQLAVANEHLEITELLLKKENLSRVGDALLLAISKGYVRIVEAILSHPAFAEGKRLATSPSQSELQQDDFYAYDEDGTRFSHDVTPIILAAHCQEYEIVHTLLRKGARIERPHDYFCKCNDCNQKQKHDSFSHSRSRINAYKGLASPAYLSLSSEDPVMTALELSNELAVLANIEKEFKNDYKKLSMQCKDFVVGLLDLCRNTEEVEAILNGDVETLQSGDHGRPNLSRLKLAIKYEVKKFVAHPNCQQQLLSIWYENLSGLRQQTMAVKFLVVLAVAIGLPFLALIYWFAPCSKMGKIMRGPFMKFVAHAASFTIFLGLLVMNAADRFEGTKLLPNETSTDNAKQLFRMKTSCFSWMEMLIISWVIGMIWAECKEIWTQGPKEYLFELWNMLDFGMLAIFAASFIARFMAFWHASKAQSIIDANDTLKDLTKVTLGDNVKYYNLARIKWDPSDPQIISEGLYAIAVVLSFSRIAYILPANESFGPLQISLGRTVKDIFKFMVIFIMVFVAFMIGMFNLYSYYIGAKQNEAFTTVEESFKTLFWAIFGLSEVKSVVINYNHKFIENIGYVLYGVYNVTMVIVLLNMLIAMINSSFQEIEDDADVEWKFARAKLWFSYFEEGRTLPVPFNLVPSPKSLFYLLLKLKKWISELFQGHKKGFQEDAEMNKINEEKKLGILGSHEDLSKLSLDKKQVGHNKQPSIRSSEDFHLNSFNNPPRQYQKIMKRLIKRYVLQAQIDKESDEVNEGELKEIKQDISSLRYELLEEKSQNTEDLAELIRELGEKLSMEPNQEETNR
Format: cell-based
In short: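 The FLIPR signal is maximum fluorescence after 30 μM OAG minus minimum before compound, measured in a human TRPC6 stable line loaded with Calcium 5 dye. Compounds were preincubated 20 min. pIC50 came from four-parameter logistic fitting of inhibition rates and is given as symbol ranges.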

`CC(C)n1cc(C(=O)c2cc(C#N)ccc2-c2ncc(CCN)cn2)cn1` [compound 1044, 4-[5-(2-aminoethyl)pyrimidin-2-yl]-3-(1-propan-2-ylpyrazole-4-carbonyl)benzonitrile] and `N#Cc1ccc(-c2ncc(CCN)cn2)c(C(=O)c2cnn(C3CCC3)c2)c1` [compound 1057, 4-[5-(2-aminoethyl)pyrimidin-2-yl]-3-(1-cyclobutylpyrazole-4-carbonyl)benzonitrile] cannot be ordered by IC50: less than 10 nM for the first, less than 10 nM for the second.

First: Cc1cc(Sc2cc(C#N)ccc2-c2ncc(CN)cn2)cc(N2CCOCC2)n1 [compound 1261, 4-[5-(aminomethyl)pyrimidin-2-yl]-3-(2-methyl-6-morpholin-4-ylpyridin-4-yl)sulfanylbenzonitrile]
Second: N#Cc1ccc(-c2ncc(CN)cn2)c(Sc2cnnc(N3CCCCC3)c2)c1 [compound 1268, 4-[5-(aminomethyl)pyrimidin-2-yl]-3-(6-piperidin-1-ylpyridazin-4-yl)sulfanylbenzonitrile]
The IC50 of the first is higher: greater than 1000 nM for the first, 10 to 1000 nM for the second.

First: Cc1cc(Oc2cc(C#N)ccc2-c2ncc([C@H](O)CN)cn2)cc(N2C[C@@H](C)O[C@@H](C)C2)n1 [compound 506, 4-[5-[(1S)-2-amino-1-hydroxyethyl]pyrimidin-2-yl]-3-[2-[(2S,6R)-2,6-dimethylmorpholin-4-yl]-6-methylpyridin-4-yl]oxybenzonitrile]
Second: Cc1cc(Oc2cc(C#N)ccc2-c2ncc(CCN)cn2)cc(C)n1 [compound 438, 4-[5-(2-aminoethyl)pyrimidin-2-yl]-3-(2,6-dimethylpyridin-4-yl)oxybenzonitrile]
The IC50 of the first is lower: less than 10 nM for the first, 10 to 1000 nM for the second.

First: Cc1nc(Oc2cc(C#N)ccc2-n2cc([C@@H](O)CN)cn2)cc(N2CCC(C(C)C)CC2)n1 [Compound 234, 4-[4-[(1R)-2-amino-1-hydroxyethyl]pyrazol-1-yl]-3-[2-methyl-6-(4-propan-2-ylpiperidin-1-yl)pyrimidin-4-yl]oxybenzonitrile]
Second: Cc1nc(OCC2CCC2)cc(Oc2cc(C#N)ccc2-n2cc([C@@H](O)CN)cn2)n1 [Compound 270, 4-[4-[(1R)-2-amino-1-hydroxyethyl]pyrazol-1-yl]-3-[6-(cyclobutylmethoxy)-2-methylpyrimidin-4-yl]oxybenzonitrile]
The IC50 of the first is higher: greater than 1000 nM for the first, 10 to 1000 nM for the second.

`Cn1nc(-c2ccccc2)cc1Oc1cc(C#N)ccc1-c1cnc(C(O)CN)cn1` (centres unmarked) [compound 314, 4-[5-(2-amino-1-hydroxyethyl)pyrazin-2-yl]-3-(2-methyl-5-phenylpyrazol-3-yl)oxybenzonitrile] and `Cn1nc(-c2ccccn2)cc1Oc1cc(C#N)ccc1-c1ccc(CCN)cn1` [Compound 176, 4-[5-(2-aminoethyl)pyridin-2-yl]-3-(2-methyl-5-pyridin-2-ylpyrazol-3-yl)oxybenzonitrile] cannot be ordered by IC50: less than 10 nM for the first, less than 10 nM for the second.

`Cc1nc(Sc2cc(C#N)ccc2-n2cc(CCN)cn2)cc(N2CCOCC2)n1` [compound 1251, 4-[4-(2-aminoethyl)pyrazol-1-yl]-3-(2-methyl-6-morpholin-4-ylpyrimidin-4-yl)sulfanylbenzonitrile] and `N#Cc1ccc(-c2ncc(CCN)cn2)c(Cn2cc(N3CCOCC3)cn2)c1` [compound 1200, 4-[5-(2-aminoethyl)pyrimidin-2-yl]-3-[(4-morpholin-4-ylpyrazol-1-yl)methyl]benzonitrile] fall in the same range of IC50: 10 to 1000 nM for the first, 10 to 1000 nM for the second.

`Cn1nc(C2CC2)cc1Oc1cc(C#N)ccc1-c1cc(C(=O)N2CCNCC2)ccn1` [compound 552, 3-(5-cyclopropyl-2-methylpyrazol-3-yl)oxy-4-[4-(piperazine-1-carbonyl)pyridin-2-yl]benzonitrile] and `Cn1nc(C2CC2)cc1Oc1cc(C#N)ccc1-c1ccc(C(N)C(=O)N2CCCCC2)cn1` (centres unmarked) [compound 486, 4-[5-(1-amino-2-oxo-2-piperidin-1-ylethyl)pyridin-2-yl]-3-(5-cyclopropyl-2-methylpyrazol-3-yl)oxybenzonitrile] cannot be ordered by IC50: greater than 1000 nM for the first, greater than 1000 nM for the second.

First: CN(C)c1cc(Sc2cc(C#N)ccc2-c2ccc(CN)cn2)cnn1 [compound 1266, 4-[5-(aminomethyl)pyridin-2-yl]-3-[6-(dimethylamino)pyridazin-4-yl]sulfanylbenzonitrile]
Second: N#Cc1ccc(-c2ccc(CCN)nc2)c(Oc2cnnc(Cl)c2)c1 [Compound 76, 4-[6-(2-aminoethyl)pyridin-3-yl]-3-(6-chloropyridazin-4-yl)oxybenzonitrile]
The IC50 of the first is lower: 10 to 1000 nM for the first, greater than 1000 nM for the second.

`Cc1nc(Oc2cc(C#N)ccc2-c2ncc(CCN)cn2)cc(O[C@H]2CCOC2)n1` [compound 888, 4-[5-(2-aminoethyl)pyrimidin-2-yl]-3-[2-methyl-6-[(3S)-oxolan-3-yl]oxypyrimidin-4-yl]oxybenzonitrile] and `Cc1nc(OCC(C)C)cc(Oc2cc(C#N)ccc2-c2ncc(CN)cn2)n1` [compound 846, 4-[5-(aminomethyl)pyrimidin-2-yl]-3-[2-methyl-6-(2-methylpropoxy)pyrimidin-4-yl]oxybenzonitrile] fall in the same range of IC50: 10 to 1000 nM for the first, 10 to 1000 nM for the second.

`N#Cc1ccc(-c2ncc(CN)cn2)c(Sc2nnc(N3CCCCC3)s2)c1` [compound 1269, 4-[5-(aminomethyl)pyrimidin-2-yl]-3-[(5-piperidin-1-yl-1,3,4-thiadiazol-2-yl)sulfanyl]benzonitrile] and `N#Cc1ccc(-c2ncc(CN)cn2)c(Cn2ccnc2-c2ccccc2)c1` [compound 1183] cannot be ordered by IC50: greater than 1000 nM for the first, greater than 1000 nM for the second.

First: Cc1nc(-c2ccccc2)cn1Cc1cc(C#N)ccc1-c1ccc(CCN)cn1 [compound 1150, 4-[5-(2-aminoethyl)pyridin-2-yl]-3-[(2-methyl-4-phenylimidazol-1-yl)methyl]benzonitrile]
Second: Cn1nc(-c2cccnc2)cc1Oc1cc(C#N)ccc1-c1ccc(CCN)cc1 [Compound 163, 4-[4-(2-aminoethyl)phenyl]-3-(2-methyl-5-pyridin-3-ylpyrazol-3-yl)oxybenzonitrile]
The IC50 of the first is lower: less than 10 nM for the first, 10 to 1000 nM for the second.

First: Cn1nc(-c2ccccn2)cc1Oc1cc(C#N)ccc1-c1cnc(CN)s1 [compound 608, 4-[2-(aminomethyl)-1,3-thiazol-5-yl]-3-(2-methyl-5-pyridin-2-ylpyrazol-3-yl)oxybenzonitrile]
Second: Cn1nc(-c2nccs2)cc1Oc1cc(C#N)ccc1-c1ncc([C@H](O)CN)cn1 [compound 574, 4-[5-[(1S)-2-amino-1-hydroxyethyl]pyrimidin-2-yl]-3-[2-methyl-5-(1,3-thiazol-2-yl)pyrazol-3-yl]oxybenzonitrile]
The IC50 of the first is higher: greater than 1000 nM for the first, 10 to 1000 nM for the second.

Compared with `Cc1nc(Oc2cc(C#N)ccc2-n2cc3c(n2)CCC(N)C3O)cc(-c2ccccc2)n1` (centres unmarked) [Compound 193, 4-(5-amino-4-hydroxy-4,5,6,7-tetrahydroindazol-2-yl)-3-(2-methyl-6-phenylpyrimidin-4-yl)oxybenzonitrile], `Cc1nc(Oc2cc(C#N)ccc2-c2ccc(CCN)cc2)cc(-c2ccsc2)n1` [Compound 32, 4-[4-(2-aminoethyl)phenyl]-3-(2-methyl-6-thiophen-3-ylpyrimidin-4-yl)oxybenzonitrile] is lower in IC50: greater than 1000 nM for the first, less than 10 nM for the second.

Compared with `Cc1nc(Oc2cc(C#N)ccc2-c2ccc(N3CCNCC3)cc2)cc(N2CCOCC2)n1` [Compound 12, 3-(2-methyl-6-morpholin-4-ylpyrimidin-4-yl)oxy-4-(4-piperazin-1-ylphenyl)benzonitrile], `Cc1nc(Oc2cc(C#N)ccc2-c2ccc(CCN)cc2)cc(N2CCC[C@@H]2C#N)n1` [Compound 130, (2R)-1-[6-[2-[4-(2-aminoethyl)phenyl]-5-cyanophenoxy]-2-methylpyrimidin-4-yl]pyrrolidine-2-carbonitrile] is lower in IC50: greater than 1000 nM for the first, less than 10 nM for the second.

First: COCCN(C)c1cc(Oc2cc(C#N)ccc2-c2ncc(CN)cn2)nc(C)n1 [compound 797, 4-[5-(aminomethyl)pyrimidin-2-yl]-3-[6-[2-methoxyethyl(methyl)amino]-2-methylpyrimidin-4-yl]oxybenzonitrile]
Second: Cc1cc(Oc2cc(C#N)ccc2-c2ccc(C3(CN)COC3)cn2)cc(N2CCOCC2)n1 [compound 613, 4-[5-[3-(aminomethyl)oxetan-3-yl]pyridin-2-yl]-3-(2-methyl-6-morpholin-4-ylpyridin-4-yl)oxybenzonitrile]
The IC50 of the first is higher: greater than 1000 nM for the first, 10 to 1000 nM for the second.

Compared with `Cn1nc(C2CC2)cc1Oc1cc(C#N)ccc1-c1ccc(C[C@H](N)C(=O)O)cc1` [compound 436, (2S)-2-amino-3-[4-[4-cyano-2-(5-cyclopropyl-2-methylpyrazol-3-yl)oxyphenyl]phenyl]propanoic acid], `Cn1nc(-c2ccc(F)cc2)cc1Oc1cc(C#N)ccc1-c1ccc(C(O)CN)cc1` (centres unmarked) [Compound 183, 4-[4-(2-amino-1-hydroxyethyl)phenyl]-3-[5-(4-fluorophenyl)-2-methylpyrazol-3-yl]oxybenzonitrile] is lower in IC50: greater than 1000 nM for the first, less than 10 nM for the second.
